Several values for one entry are separate records, joined by “and”; a condition that tells them apart may be missing. Equal entries are not always repeated.
Tests used:
anti-HAV-positive sera = experiment: EIA for anti-HAV: synthetic peptides adsorbed to wells, reacted with anti-HAV-positive acute sera; format: binding, human; details: for Reactivity with acute sera (reactive/tested): experiment 1: sera 1:100, anti-human IgG-HRP, cutoff P/N 3.0; for Reactivity with acute sera (percent of sera reactive): experiment 1: sera 1:100, cutoff P/N 3.0; for P/N for acute sera (mean) / P/N for acute sera (range, in parentheses) / P/N for acute sera (individual values): experiment 1; for P/N for acute sera (mean) / P/N for acute sera (range, in parentheses): OD493 positive/negative ratio of reactive sera; for P/N for acute sera (individual values): single sera listed with semicolon
From the text: (§1) All anti-HAV-positive and anti-HAV-negative sera were randomly selected from a collection reposited at the Centers for Disease Control and Prevention, Atlanta, Ga. Serum specimens were collected from anti-HAV-positive patients with acute liver disease. Anti-HAV-negative serum specimens were collected from normal blood donors. All sera were initially tested by commercially available kit for the presence of anti-HAV activity (HAVAB and HAVAB-M, Abbott Laboratories, Abbott Park, Ill.)
(§2) Synthetic peptides (110 ml) at a concentration of 10 mg/ml in 0.1 M phosphate-buffered saline (PBS), pH 7.5, were adsorbed to microtiter wells (Immulon II, Dynatech Laboratories, Inc.) at room temperature for 12 h. Sera were diluted in PBS containing 0.1% Tween 20 and 10% normal goat serum (PBS-T) and 100 ml were added to each well, incubated for 60 min at 37E C, and washed with PBS containing Tween-20. […] Two different cutoffs were established for experiments 1 and 2. In experiment 1, the cutoff, expressed as a P/N ratio and equal to 3.0, was statistically established as the mean of negative controls plus at least 3.5 standard deviations (SD) above the mean, where P represents the optical density value at 493 nm (OD493) of anti-HAV-positive specimens and N represents the optical density value of negative controls. In experiment 2, a different cutoff was used to ensure statistical reliability and accurate interpretation of positive results. In this case, in addition to anti-HAV-negative sera, two irrelevant synthetic peptides were used as supplemental negative controls to determine the degree of nonspecific binding of anti-HAV sera to synthetic peptides. One cutoff, expressed as a P/N ratio and equal to 3.0, corresponded to the mean of negative serum controls plus at least 3.5 SD above the mean. A second cutoff was also expressed as a P/N ratio, where P represents the optical density value at 493 nm (OD493) for HAV peptides immunoreacting with anti-HAV-positive specimens and N represents the optical density value obtained with the irrelevant peptides. The second cutoff was equal 2.0 and corresponded to the mean of OD values obtained with the irrelevant peptides plus at least 3.5 SD above the mean. Synthetic peptides were considered immunoreactive with anti-HAV serum specimens only when both cutoffs were satisfied.

anti-HAV-negative sera = experiment: EIA for anti-HAV: synthetic peptides reacted with anti-HAV-negative sera; format: binding, human; details: experiment 1: sera 1:100, cutoff P/N 3.0
From the text: as §1, §2

| Sequence | Reactivity with acute sera (reactive/tested) (anti-HAV-positive sera) | Reactivity with acute sera (percent of sera reactive) (anti-HAV-positive sera) [%] | P/N for acute sera (mean) (anti-HAV-positive sera) | P/N for acute sera (range, in parentheses) (anti-HAV-positive sera) | Reactivity with negative sera (reactive/tested) (anti-HAV-negative sera) | P/N for acute sera (individual values) (anti-HAV-positive sera) | immunoreactivity with anti-HAV-positive sera (in words) (anti-HAV-positive sera) |
| --- | --- | --- | --- | --- | --- | --- | --- |
| EPLRTSVDKPGSKKTQGEKF [YK-1211] | 21/46 | 45.7 | 9.33 | (3.37-27.92) | 0/48 |  |  |
| EDPVLAKKVPETFPELKPGE [YK-1272] | 6/41 | 14.6 | 5.4 | (4.87-6.12) | 1/46 |  |  |
| FSQAKISLFYTEEHEIMKFS [YK-1319] | 13/48 | 27.1 | 3.87 | (3.14-5.01) | 2/51 |  |  |
| SVTEQSEFYFPRAPLNSNAM [YK-1308] | 1/48 | 2.1 | 3.32 |  | 0/51 |  |  |
| KCITALASICQMFCFWRGDL [YK-1247] | 9/46 | 19.6 | 3.96 | (3.06-4.49) | 0/48 |  |  |
| DVVLMKVPTIPKFRDITQHF [YK-1382] | 1/41 | 2.4 | 8.4 |  | 0/27 |  |  |
| LDENGLLLGVHPRLAQRILF [YK-1407] | 2/41 | 4.9 |  |  | 0/27 | 3.43 and 3.98 |  |
| SKTRAIDACPLDYSILCRMY [YK-1412] | 10/41 | 24.4 | 6.04 | (3.4-15.15) | 2/27 |  |  |
| WQRSNAEFEQNLENAQWFAF [YK-1436] | 4/41 | 9.8 | 4.49 | (3.35-5.89) | 1/27 |  |  |
| RMYWGPAISYFHLNPGFHTG [YK-1414] | 1/41 | 2.4 | 3.35 |  | 0/27 |  |  |
| DLDFSAFDASLSPFMIREAG [YK-1419] | 5/41 | 12.2 | 5.27 | (3.98-8.49) | 1/27 |  |  |
| SLIAWQRSNAEFEQNLENAQ [YK-1435] | 6/41 | 14.6 | 8.96 | (5.16-13.71) | 1/27 |  |  |
| TTVSTEQNVPDPQVGITTMK [YK-1265] | 9/41 | 22.0 | 6.7 | (3.23-9.57) | 0/46 |  |  |
| MEEKATYVHKKNDGTTVDLT [YK-1388] | 4/41 | 9.8 | 4.29 | (3.99-4.7) | 0/27 |  |  |
| AKKVPETFPELKPGESRHTS [YK-1273] | 19/46 | 41.3 | 5.15 | (3.15-8.58) | 3/48 |  | broad and strong antigenic reactivity |
| QFPFNASDSVGQQIKVIPVD [YK-1241] | 1/41 | 2.4 | 3.56 |  | 0/46 |  | Very weakly reactive |
| EVGSHQVEPLRTSVDKPGSK [YK-1210] | 15/46 | 32.6 | 7.31 | (3.93-20.47) | 0/48 |  |  |
| GITLKQATTAPCAVMDITGV [YK-1252] | 2/41 | 4.9 |  |  | 0/46 | 3.67 and 17.95 |  |
| VKPASFFKNPHNDMLNVNLA [YK-1362] | 6/41 | 14.6 | 7.82 | (3.4-18.05) | 0/41 |  |  |
| SHIECRKPYKELRLEVGKQR [YK-1315] | 26/48 | 54.2 | 13.71 | (3.1-75.61) | 1/51 |  |  |
| LGMTATSADKNVPQLKPVSE [YK-1429] | 5/41 | 12.2 | 10.25 | (4.92-27.38) | 0/27 |  |  |
| NILKDNQQKIEKAIEEADEF [YK-1341] | 3/48 | 6.3 | 5.23 | (3.44-8.26) | 1/51 |  |  |
| VSGCPMRLNMASLEEKGRHF [YK-1356] | 8/48 | 16.7 | 5.49 | (3.36-10.96) | 0/51 |  |  |
| NIGTGTSAYTSLNVLARFTD [YK-1224] | 9/41 | 22.0 | 3.53 | (3.09-4.17) | 0/46 |  |  |
| MSRIAAGDLESSVDDPRSEE [YK-1312] | 13/48 | 27.1 | 8.7 | (4.44-25.9) | 2/51 |  |  |
| FTQCSMNVVSKTLFRKSPIY [YK-1395] | 8/41 | 19.5 | 6.52 | (3.51-17.52) | 1/27 |  |  |
| QRLKYAQEELSNEVLPPPRK [YK-1317] | 55/66 | 83.3 | 19.35 | (3.47-125.8) | 1/66 |  |  |
| DSAVAEFFQSFPSGEPSNSK [YK-1369] | 24/41 | 58.5 | 21.71 | (3.8-42.62) | 1/27 |  |  |
| HFLCTFTFNSNNKEYTFPIT [YK-1279] | 7/41 | 17.1 | 3.43 | (3.11-3.67) | 1/46 |  |  |
| FPTKYHSGRLLFCFVPGNEL [YK-1250] | 17/46 | 37.0 | 5.68 | (3.4-7.92) | 0/48 |  | broadly and strongly immunoreactive |

Source: patent US6838237B2, “Antigenically reactive regions of the hepatitis a virus polyprotein” (The United States of America as represented by the …, priority 1996, dated 2005)
